Data set [1] has as its system obese, anterior hypothalamic area (AHA)-lesioned mice. Put plainly: 20-day intraperitoneal treatment of obese AHA-lesioned mice, body weight (Table 3). In kind it is in vivo, C57BL/6 male mice. As to conditions: N=6, Mean ± SD; for Body weight (g): p<0.05 vs before treatment. The protocol: C57BL/6 male mice aged 7 months (AHA-lesioned at 2 months of age to induce obesity), were injected intraperitoneally for 20 days at 6 pm (evening) with 0.5 ml volume containing 10 µg TRH-tartrate in bidistilled water. Controls were injected with the same amount of diluent.

Data set [2] concerns anterior hypothalamic area (AHA)-lesioned obese mice. Put plainly: 48-day intraperitoneal treatment of AHA-lesioned obese mice, body weight (Table 5). In kind it is in vivo, C57BL/6 female mice. As to conditions: N=4, Mean ± SD. The protocol:
C57BL/6 female mice aged 8 months (AHA-lesioned at 2 months of age to induce obesity), were injected intraperitoneally for 48 days at 6 pm (evening) with 0.5 ml volume containing 10 µg TRH-tartrate in bidistilled water. Controls were injected with the same amount of diluent.

The nature of data set [3]: 20-day intraperitoneal treatment, blood levels of T3, T4 and TSH by radioimmunoassay in serum (Table 7). In kind it is in vivo, C57BL/6 male mice. As to conditions: for T3 / T4 / TSH (µU/mL): serum, Mean ± SD. The method, then:
This is shown by Table 7 hereafter which report the results of assays which were ran under the following conditions.
C57BL/6 male mice aged 9 months, were injected intraperitonealy for 20 days at 6 p.m. (evening) or at 8 a.m. (morning) with 0.5 ml volumes containing either 10 µg or 100 µg of TRH in bidistilled water. Controls were injected with the same amount of diluent. The mice were bled from the retroorbital venus plexus under rapid acute ether anaesthesia at 10 a.m. T3, T4 and TSH were measured by radioimmunoassay in the serum of individual mice. TABLE 7: […]

The next data set has as its system old female mice. As to the kind of experiment: Chronic oral administration in drinking water, aging-related adiposity, body weight (Table 8). In kind it is in vivo, BALB/cJ X C57BL/6 F1 female mice. To be noted: n=15, Mean ± SD. The text has this: With other words, progressive alteration of pineal-hypothalamic-pituitary-peripheral endocrine glands function in the course of aging leads to the most typical appearance of decreased tolerance to glucose (hyperglycemia), increased levels of lipids, in particular triglycerides and cholesterol (hyperlipidemia) and progressive accumulation of fat, which is not obesity but the most common expression of hormonal derangements. TRH taken chronically will maintain normal body weight in normal aging mice, while the normal controls put on fat and weight.
The results reported in Table 8 clearly support the presumption that TRH is also capable of preventing onset of aging-related adiposity in humans.

Data set [4] is described as follows: 2 months treatment, blood levels of cholesterol and triglycerides in old mice (Table 9). To be noted: 2 months treatment started in 20-month-old female mice, n = 10, dosages as for Table 7. In kind it is in vivo, BALB/cJ female mice. An excerpt:
Evidence that the lipid related compounds whose proportions in the blood circulation of old mice have a cause different from those observed in young mice treated with TRH seems further indicated by the fact that the weight of 16 month-old female mice, thus older mice which tend to accumulate age-related adiposity, can also be controlled and even reduced by the adsorption of TRH (see table 8). Indeed the contents in lipid-related compounds in the blood circulation of older mice (20 month-old mice) treated with TRH remain substantially unaltered, as evidenced by the results shown in Table 9 hereafter. The dosages of TRH were the same as in the assay reported in relation to Table 7.

The conditions of data set [5]: aging mice (18 month-old mice) compared with young, e.g. three month-old mice; cited from earlier work.
The nature of data set [6]: Toxicity of increasing doses in the drinking water.
Setting [7] is: TRH evening (6 p.m.) 10 µg i.p. for 20 days.
Setting [8] is: TRH evening (6 p.m.) 100 µg i.p. for 20 days.
Where [9] appears, read: TRH morning (8 a.m.) 10 µg i.p. for 20 days.
The mark [10] stands for this setting: TRH morning (8 a.m.) 100 µg i.p. for 20 days.

Consider (pyro)Glu-His-Pro NH2 [TRH], for which the “Body weight” value is recorded as 33.7 ± 4.2 g in data set [1] (After 10 days of treatment, 10 µg TRH-tartrate i.p. daily at 6 pm); 38.3 ± 5.9 g in data set [1] (After withdrawal period of 60 days following 20-day treatment); 39.0 ± 6.2 g in data set [1] (Before treatment, AHA-lesioned male mice aged 7 months); 39.2 ± 7.2 g in data set [2] (After 27 days of treatment, 10 µg TRH-tartrate i.p. daily at 6 pm); 42.2 ± 6.4 g in data set [2] (Before treatment, AHA-lesioned female mice aged 8 months). Moreover, the “Body weight (g)” value in data set [1] (After 20 days of treatment, 10 µg TRH-tartrate i.p. daily at 6 pm) is listed as 32.0 ± 3.6^∗ g; in data set [1] (After withdrawal period of 5 days following 20-day treatment), 31.1 ± 3.4^∗ g; in data set [2] (After 48 days of treatment, 10 µg TRH-tartrate i.p. daily at 6 pm, p<0.05 vs before treatment), 32.6 ± 4.4^∗ g. In addition, the “T3” value in data set [3] (setting [7]) came to 0.82 ± 0.08 nmol/L; in data set [3] (setting [8]) it was 0.91 ± 0.02 nmol/L; in data set [3] (setting [9]), 1.03 ± 0.07 nmol/L; in data set [3] (setting [10]), 0.84 ± 0.02 nmol/L. For the same compound, the “T4” value worked out at 65.7 ± 4.2 nmol/L in data set [3] (setting [7]), 68.7 ± 13.1 nmol/L in data set [3] (setting [8]), 82.0 ± 1.9 nmol/L in data set [3] (setting [9]) and 74.9 ± 13.3 nmol/L in data set [3] (setting [10]). For the same compound, the “TSH (µU/mL)” value came out at 0.005 ± 0.004 µU/mL in data set [3] (setting [7]), 0.004 ± 0.005 µU/mL in data set [3] (setting [8]), 0.009 ± 0.006 µU/mL in data set [3] (setting [9]) and 0.007 ± 0.005 µU/mL in data set [3] (setting [10]). Besides, in data set [3] (injected at huge dosages (up to 100 µg i.p. for 20 days)), the acute toxicity entry was “lack of acute toxicity”. Also, in the data set on old female mice (16 month-old female mice), the “Body weight (g) before treatment” value was 33.1 ± 3.2 (15) g. The “Body weight (g) after treatment” value in the data set with old female mice (TRH-tartrate in the drinking water (100µg/ml) for 5 months, started at 16 months of age) is 33.8 ± 4.0 (15) g. For the same compound, the “CHOLESTEROL” value in data set [4] amounted to 1.65 ± 0.29 mmol/L. Besides, the “TRIGLYCERIDES” value in data set [4] is 1.19 ± 0.46 mmol/L. In data set [5], the “levels of cholesterol, triglycerids and phospholipids” value was “brought back to values currently observed in young mice”.

For `COc1ccc2[nH]cc(CCNC(C)=O)c2c1` [melatonin], the toxicity result in data set [6] was “not toxic”.

Source of the values: patent EP1097716A1, “Dietary anti-adiposity food supplements and drugs based on thyrotropin-releasing hormone (TRH)” (Chronolife Inc., priority 1999, dated 2001).
